# From the NIST ThermoML archive (doi:10.1016/j.jct.2013.05.030)
# ± gives the expanded uncertainty stated by the source.
# Assay: activity coefficient (dimensionless); of the first substance listed, at infinite dilution; xn = mol fraction of the nth substance listed
# Conditions: 333.15 K; 101 kPa; Liquid; Chromatography; x1 = 0
row,SMILES,activity coefficient
1,Cc1ccccc1 [toluene] + CCCCCCCCCCCCCC[P+](CCCCCC)(CCCCCC)CCCCCC.O=S(=O)([N-]S(=O)(=O)C(F)(F)F)C(F)(F)F,0.472 ± 0.04

# Same assay, conditions: 353.15 K; 101 kPa; Liquid; Chromatography; x1 = 0
row,SMILES,activity coefficient
1,C=CCCCCC [1-heptene] + CCCCCCCCCCCCCC[P+](CCCCCC)(CCCCCC)CCCCCC.O=S(=O)([N-]S(=O)(=O)C(F)(F)F)C(F)(F)F,1.1 ± 0.08
2,C#CCCCCC [1-heptyne] + CCCCCCCCCCCCCC[P+](CCCCCC)(CCCCCC)CCCCCC.O=S(=O)([N-]S(=O)(=O)C(F)(F)F)C(F)(F)F,0.762 ± 0.057
3,C#CCCCC [1-hexyne] + CCCCCCCCCCCCCC[P+](CCCCCC)(CCCCCC)CCCCCC.O=S(=O)([N-]S(=O)(=O)C(F)(F)F)C(F)(F)F,0.72 ± 0.054
4,C#CCCCCCCC [1-nonyne] + CCCCCCCCCCCCCC[P+](CCCCCC)(CCCCCC)CCCCCC.O=S(=O)([N-]S(=O)(=O)C(F)(F)F)C(F)(F)F,0.956 ± 0.069
5,C#CCCCCCC [1-octyne] + CCCCCCCCCCCCCC[P+](CCCCCC)(CCCCCC)CCCCCC.O=S(=O)([N-]S(=O)(=O)C(F)(F)F)C(F)(F)F,0.886 ± 0.065
6,C=CCCC [1-pentene] + CCCCCCCCCCCCCC[P+](CCCCCC)(CCCCCC)CCCCCC.O=S(=O)([N-]S(=O)(=O)C(F)(F)F)C(F)(F)F,0.842 ± 0.062
7,C#CCCC [1-pentyne] + CCCCCCCCCCCCCC[P+](CCCCCC)(CCCCCC)CCCCCC.O=S(=O)([N-]S(=O)(=O)C(F)(F)F)C(F)(F)F,0.663 ± 0.051
8,CC(C)=O [acetone] + CCCCCCCCCCCCCC[P+](CCCCCC)(CCCCCC)CCCCCC.O=S(=O)([N-]S(=O)(=O)C(F)(F)F)C(F)(F)F,0.332 ± 0.034
9,c1ccccc1 [benzene] + CCCCCCCCCCCCCC[P+](CCCCCC)(CCCCCC)CCCCCC.O=S(=O)([N-]S(=O)(=O)C(F)(F)F)C(F)(F)F,0.417 ± 0.038
10,CCC(C)=O [butanone] + CCCCCCCCCCCCCC[P+](CCCCCC)(CCCCCC)CCCCCC.O=S(=O)([N-]S(=O)(=O)C(F)(F)F)C(F)(F)F,0.324 ± 0.034
11,C1CCCCCC1 [cycloheptane] + CCCCCCCCCCCCCC[P+](CCCCCC)(CCCCCC)CCCCCC.O=S(=O)([N-]S(=O)(=O)C(F)(F)F)C(F)(F)F,0.891 ± 0.065
12,C1CCCCC1 [cyclohexane] + CCCCCCCCCCCCCC[P+](CCCCCC)(CCCCCC)CCCCCC.O=S(=O)([N-]S(=O)(=O)C(F)(F)F)C(F)(F)F,0.798 ± 0.059
13,C1CCCCCCC1 [cyclooctane] + CCCCCCCCCCCCCC[P+](CCCCCC)(CCCCCC)CCCCCC.O=S(=O)([N-]S(=O)(=O)C(F)(F)F)C(F)(F)F,1.07 ± 0.078
14,C1CCCC1 [cyclopentane] + CCCCCCCCCCCCCC[P+](CCCCCC)(CCCCCC)CCCCCC.O=S(=O)([N-]S(=O)(=O)C(F)(F)F)C(F)(F)F,0.713 ± 0.054
15,C=CCCCC [hex-1-ene] + CCCCCCCCCCCCCC[P+](CCCCCC)(CCCCCC)CCCCCC.O=S(=O)([N-]S(=O)(=O)C(F)(F)F)C(F)(F)F,0.93 ± 0.068
16,CCCCCC [hexane] + CCCCCCCCCCCCCC[P+](CCCCCC)(CCCCCC)CCCCCC.O=S(=O)([N-]S(=O)(=O)C(F)(F)F)C(F)(F)F,1.12 ± 0.082
17,CO [methanol] + CCCCCCCCCCCCCC[P+](CCCCCC)(CCCCCC)CCCCCC.O=S(=O)([N-]S(=O)(=O)C(F)(F)F)C(F)(F)F,0.922 ± 0.067
18,CCCCCCCCC [nonane] + CCCCCCCCCCCCCC[P+](CCCCCC)(CCCCCC)CCCCCC.O=S(=O)([N-]S(=O)(=O)C(F)(F)F)C(F)(F)F,1.77 ± 0.14
19,CCCCCCCC [octane] + CCCCCCCCCCCCCC[P+](CCCCCC)(CCCCCC)CCCCCC.O=S(=O)([N-]S(=O)(=O)C(F)(F)F)C(F)(F)F,1.46 ± 0.11
20,CCCCC [pentane] + CCCCCCCCCCCCCC[P+](CCCCCC)(CCCCCC)CCCCCC.O=S(=O)([N-]S(=O)(=O)C(F)(F)F)C(F)(F)F,0.99 ± 0.072
21,CCCO [propan-1-ol] + CCCCCCCCCCCCCC[P+](CCCCCC)(CCCCCC)CCCCCC.O=S(=O)([N-]S(=O)(=O)C(F)(F)F)C(F)(F)F,1.07 ± 0.078
22,Cc1ccccc1 [toluene] + CCCCCCCCCCCCCC[P+](CCCCCC)(CCCCCC)CCCCCC.O=S(=O)([N-]S(=O)(=O)C(F)(F)F)C(F)(F)F,0.486 ± 0.041

# Same assay, conditions: 373.15 K; 101 kPa; Liquid; Chromatography; x1 = 0
row,SMILES,activity coefficient
1,C=CCCCCC [1-heptene] + CCCCCCCCCCCCCC[P+](CCCCCC)(CCCCCC)CCCCCC.O=S(=O)([N-]S(=O)(=O)C(F)(F)F)C(F)(F)F,1.12 ± 0.082
2,C#CCCCCC [1-heptyne] + CCCCCCCCCCCCCC[P+](CCCCCC)(CCCCCC)CCCCCC.O=S(=O)([N-]S(=O)(=O)C(F)(F)F)C(F)(F)F,0.782 ± 0.058
3,C#CCCCC [1-hexyne] + CCCCCCCCCCCCCC[P+](CCCCCC)(CCCCCC)CCCCCC.O=S(=O)([N-]S(=O)(=O)C(F)(F)F)C(F)(F)F,0.732 ± 0.055
4,C#CCCCCCCC [1-nonyne] + CCCCCCCCCCCCCC[P+](CCCCCC)(CCCCCC)CCCCCC.O=S(=O)([N-]S(=O)(=O)C(F)(F)F)C(F)(F)F,0.979 ± 0.071
5,C#CCCCCCC [1-octyne] + CCCCCCCCCCCCCC[P+](CCCCCC)(CCCCCC)CCCCCC.O=S(=O)([N-]S(=O)(=O)C(F)(F)F)C(F)(F)F,0.899 ± 0.066
6,C=CCCC [1-pentene] + CCCCCCCCCCCCCC[P+](CCCCCC)(CCCCCC)CCCCCC.O=S(=O)([N-]S(=O)(=O)C(F)(F)F)C(F)(F)F,0.85 ± 0.063
7,C#CCCC [1-pentyne] + CCCCCCCCCCCCCC[P+](CCCCCC)(CCCCCC)CCCCCC.O=S(=O)([N-]S(=O)(=O)C(F)(F)F)C(F)(F)F,0.699 ± 0.053
8,CC(C)=O [acetone] + CCCCCCCCCCCCCC[P+](CCCCCC)(CCCCCC)CCCCCC.O=S(=O)([N-]S(=O)(=O)C(F)(F)F)C(F)(F)F,0.334 ± 0.034
9,c1ccccc1 [benzene] + CCCCCCCCCCCCCC[P+](CCCCCC)(CCCCCC)CCCCCC.O=S(=O)([N-]S(=O)(=O)C(F)(F)F)C(F)(F)F,0.437 ± 0.039
10,CCC(C)=O [butanone] + CCCCCCCCCCCCCC[P+](CCCCCC)(CCCCCC)CCCCCC.O=S(=O)([N-]S(=O)(=O)C(F)(F)F)C(F)(F)F,0.331 ± 0.034
11,C1CCCCCC1 [cycloheptane] + CCCCCCCCCCCCCC[P+](CCCCCC)(CCCCCC)CCCCCC.O=S(=O)([N-]S(=O)(=O)C(F)(F)F)C(F)(F)F,0.905 ± 0.066
12,C1CCCCC1 [cyclohexane] + CCCCCCCCCCCCCC[P+](CCCCCC)(CCCCCC)CCCCCC.O=S(=O)([N-]S(=O)(=O)C(F)(F)F)C(F)(F)F,0.8 ± 0.059
13,C1CCCCCCC1 [cyclooctane] + CCCCCCCCCCCCCC[P+](CCCCCC)(CCCCCC)CCCCCC.O=S(=O)([N-]S(=O)(=O)C(F)(F)F)C(F)(F)F,1.12 ± 0.082
14,C1CCCC1 [cyclopentane] + CCCCCCCCCCCCCC[P+](CCCCCC)(CCCCCC)CCCCCC.O=S(=O)([N-]S(=O)(=O)C(F)(F)F)C(F)(F)F,0.721 ± 0.055
15,C=CCCCC [hex-1-ene] + CCCCCCCCCCCCCC[P+](CCCCCC)(CCCCCC)CCCCCC.O=S(=O)([N-]S(=O)(=O)C(F)(F)F)C(F)(F)F,0.942 ± 0.068
16,CCCCCC [hexane] + CCCCCCCCCCCCCC[P+](CCCCCC)(CCCCCC)CCCCCC.O=S(=O)([N-]S(=O)(=O)C(F)(F)F)C(F)(F)F,1.13 ± 0.083
17,CO [methanol] + CCCCCCCCCCCCCC[P+](CCCCCC)(CCCCCC)CCCCCC.O=S(=O)([N-]S(=O)(=O)C(F)(F)F)C(F)(F)F,0.863 ± 0.063
18,CCCCCCCCC [nonane] + CCCCCCCCCCCCCC[P+](CCCCCC)(CCCCCC)CCCCCC.O=S(=O)([N-]S(=O)(=O)C(F)(F)F)C(F)(F)F,1.87 ± 0.14
19,CCCCCCCC [octane] + CCCCCCCCCCCCCC[P+](CCCCCC)(CCCCCC)CCCCCC.O=S(=O)([N-]S(=O)(=O)C(F)(F)F)C(F)(F)F,1.49 ± 0.11
20,CCCCC [pentane] + CCCCCCCCCCCCCC[P+](CCCCCC)(CCCCCC)CCCCCC.O=S(=O)([N-]S(=O)(=O)C(F)(F)F)C(F)(F)F,1 ± 0.072
21,CCCO [propan-1-ol] + CCCCCCCCCCCCCC[P+](CCCCCC)(CCCCCC)CCCCCC.O=S(=O)([N-]S(=O)(=O)C(F)(F)F)C(F)(F)F,0.953 ± 0.069
22,Cc1ccccc1 [toluene] + CCCCCCCCCCCCCC[P+](CCCCCC)(CCCCCC)CCCCCC.O=S(=O)([N-]S(=O)(=O)C(F)(F)F)C(F)(F)F,0.51 ± 0.042
